{"source": "patent EP4427759A1", "about": "“TRACEABLE CHIMERIC ANTIGEN RECEPTOR CELL” (Eberhard-Karls-Universität Tübingen, priority 2023, dated 2024)", "key": {"HCT116 AdCAR xenografts": {"tested_on": "HCT116 AdCAR xenografts", "assay": "HCT116 AdCAR xenograft model, PET/MR and ex vivo biodistribution by gamma-counting", "format": "in vivo, NOD.CB17-Prkdcscid/J mice", "procedure": "(§1) For the xenograft model, 5 × 10^6 cells/mL cells were injected. Five NOD.CB17-Prkdcscid/J were injected with HCT116 WT, and five additional mice were injected with HCT116 AdCAR subcutaneously into the right flank in a mixture of 1:1 Matrigel and PBS (200 µL per mouse) with a 1 mL syringe (30G canula). Afterwards the tumors grew for approximately two weeks before PET and MR measurements.\n(§2) For the xenograft model a one-hour dynamic PET scan was performed. The mice were anaesthetized with isoflurane (initially 5%, then 1.5-2%) and a catheter was placed into the tail vein. The mice were placed onto the scanner bed and the body was centered into the field of view (FOV). Mice were injected with13.6 ± 0.35 MBq of [^18F]biotin3FB on average at the beginning of the PET scan and measured for 1h. Afterwards, MR scans were performed to gain anatomical information using an TurboRare spin-echo sequence. After the scans, the mice were sacrificed, and the organs were collected to quantify radiotracer uptake by ex vivo gamma-counting.\n(§3) Reconstruction and analysis of the acquired PET/MR data was performed with Inveon Acquisition Workplace and Inveon Research Workplace (IRW), respectively, using dynamic framing and an ordered subset expectation maximization (OSEM) 3D algorithm. For the second part of the experiment statistic framing was used. Regions of interest (ROIs) were drawn under consideration of the acquired MR images and co-registered with the PET data to obtain time-activity curves (TACs)."}, "HCT116 CTRL xenografts": {"tested_on": "HCT116 CTRL xenografts", "assay": "HCT116 control xenograft model, ex vivo biodistribution by gamma-counting", "format": "in vivo, NOD.CB17-Prkdcscid/J mice", "settings": "gamma-counting after 1 h dynamic PET scan, n = 5", "procedure": "as §1, §2\n(§4) Reconstruction and analysis of the acquired PET/MR data was performed with Inveon Acquisition Workplace and Inveon Research Workplace (IRW), respectively, using dynamic framing and an ordered subset expectation maximization (OSEM) 3D algorithm. For the second part of the experiment statistic framing was used. […]"}, "[1]": {"assay": "one-hour dynamic PET scan, time activity curves of organs", "format": "in vivo, NOD.CB17-Prkdcscid/J mice", "procedure": "as §2, §3"}, "Jurkat AdCAR cells": {"tested_on": "Jurkat AdCAR cells", "assay": "Jurkat model, static PET/MR and ex vivo biodistribution", "format": "in vivo, mice", "settings": "Jurkat AdCAR vs Jurkat CTRL i.p.; day 1, 3 and 7 after cell injection; 1 h resting uptake", "procedure": "Five mice were injected with 1 × 10^7 cells/mL Jurkat LucGFP (CTRL), and five additional mice were injected with 1 × 10^7 cells/mL Jurkat aCAR in 200µl PBS into the peritoneal cavity with a 1 mL syringe (30G canula).\nFor the Jurkat model a ten-minute static PET scan was performed. The mice were anaesthetized with isoflurane (initially 5%, then 1.5-2) and a catheter was placed into the tail vein. The mice were injected with 13.6 ± 0.24 MBq of [^18F]biotin3FB on average and afterwards placed in an isoflurane box for a one-hour resting uptake. After 1 h, the mice were placed onto the scanner bed, the body was centered into the FOV, and a 10 min PET scan was performed. Afterwards, MR scans were performed as described above. The PET and MR measurements took place on day 1, 3 and 7 after cell injection. When the measurements on the 7th day were finished, the mice were sacrificed and uptake in spleen, lymph nodes, muscle and blood were quantified by ex vivo gamma-counting.\nas §4"}, "[2]": {"settings": "ex vivo biodistribution, xenograft model"}}}
{"substance": "[^18F]biotin3fluorobenzoate [[^18F]biotin3FB]", "values": [{"measurement": "uptake in xenografts, ex vivo biodistribution analysis", "setting": "HCT116 AdCAR xenografts; AdCAR expressing xenografts, gamma-counting after 1 h dynamic PET scan, n = 5", "value": 4.59, "unit": "% ID/g"}, {"measurement": "tumor-to-muscle ratio (TMR), AdCAR xenografts compared to control xenografts", "setting": "HCT116 AdCAR xenografts; P=0.0159, Mann-Whitney test, n = 5 per group", "value": "significantly higher"}, {"measurement": "absolute tumor uptake, AdCAR xenografts compared to control xenografts", "setting": "HCT116 AdCAR xenografts; p = 0.0050, unpaired t test, n = 5 per group", "value": "significantly higher"}, {"measurement": "uptake in xenografts, ex vivo biodistribution analysis", "setting": "HCT116 CTRL xenografts", "value": 0.73, "unit": "% ID/g"}, {"measurement": "SUVpeak(aCAR), brain TAC", "setting": "[1]; brain, mice with HCT116 AdCAR xenografts", "value": 0.54}, {"measurement": "SUVpeak(CTRL), brain TAC", "setting": "[1]; brain, mice with HCT116 CTRL xenografts", "value": 0.45}, {"measurement": "blood half-life", "setting": "[1]; calculated from the heart TAC, i.v. tail vein", "value": 2.3, "unit": "min"}, {"measurement": "radiotracer uptake in the brain", "setting": "[1]; [2]", "value": "Almost no uptake"}, {"measurement": "radiotracer uptake in the kidney", "setting": "[1]; [2]", "value": "High radiotracer uptake"}, {"measurement": "difference between AdCAR expressing cells and control cells (PET/MR, spleen uptake)", "setting": "Jurkat AdCAR cells", "value": "no difference"}]}
